Among the data in the supplement of paper PMC10307832 are relative viability values, retold here.

What all share (test): relative viability (nuclei count vs DMSO), 5 days (fraction); higher = more cells survive
Compound in test [1]: CC1=C(C(=NN1)C)CC2=C(C3=C(S2)N(C(=O)N(C3=O)C)CC(C)C)C(=O)N4C[C@@H](CO4)O + CC1(C)CCC(c2ccc(Cl)cc2)=C(CN2CCN(c3ccc(C(=O)NS(=O)(=O)c4ccc(N[C@H](CCN5CCOCC5)CSc5ccccc5)c(S(=O)(=O)C(F)(F)F)c4)cc3)CC2)C1 [Navitoclax] (partner 0.5 µM)
A digest of the protocol: (§1)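 Lung cancer cell lines were pin-tool dosed in 1536-well plates on the day after seeding, with either a lone drug or a fixed anchor-drug dose plus five library-drug doses (not always all listed) in √10 steps. Nuclei were counted on 4× images after 5 days. Relative viability is the ratio of treated-well to vehicle-well nuclei counts, with each value a median of duplicate plates.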

Compound in test [2]: CC1=C(C(=NN1)C)CC2=C(C3=C(S2)N(C(=O)N(C3=O)C)CC(C)C)C(=O)N4C[C@@H](CO4)O + COc1cccc2cc(-c3nc([C@H]4CC[C@H](C(=O)O)CC4)n4ncnc(N)c34)[nH]c12 [OSI-027] (partner 0.5 µM)
The essentials: as §1

Compound in test [3]: Cc1ccccc1C(C(=O)NC1CCCCC1)N(C(=O)Cn1ccnc1C)c1cccc(F)c1 [IDH-C35] + C[C@]1(O)C[C@@H](c2nc(-c3ccc4ccc(-c5ccccc5)nc4c3)c3c(N)nccn32)C1 [Linsitinib] (partner 1 µM)
A digest of the protocol:
as §1

Compound in test [4]: Cc1ccccc1C(C(=O)NC1CCCCC1)N(C(=O)Cn1ccnc1C)c1cccc(F)c1 [IDH-C35] + Cc1cc(Nc2cc(N3CCN(C)CC3)nc(Sc3ccc(NC(=O)C4CC4)cc3)n2)n[nH]1 [Tozasertib] (partner 0.1 µM)
A digest of the protocol:
as §1

As for UMC-11, the relative viability in test [1] (first compound 0.0025 µM) stood at 0.31; in test [1] (first compound 0.007906 µM), 0.215; in test [1] (first compound 0.025 µM) it was 0.233; in test [1] (first compound 0.07906 µM) it was 0.211; in test [1] (first compound 0.25 µM), 0.199; in test [2] (first compound 0.0025 µM) it was 0.494. For the same cell line, the relative viability in test [2] (first compound 0.007906 µM) came to 0.473; in test [2] (first compound 0.025 µM) it was 0.468; in test [2] (first compound 0.07906 µM), 0.549; in test [2] (first compound 0.25 µM), 0.572; in test [3] (first compound 0.08 µM), 0.942; in test [3] (first compound 0.253 µM), 1.06. For the same cell line, the relative viability in test [3] (first compound 0.8 µM) turned out to be 1.04; in test [3] (first compound 2.53 µM) it was 1.04; in test [3] (first compound 8 µM), 0.971; in test [4] (first compound 0.08 µM) it was 0.199; in test [4] (first compound 0.253 µM), 0.198; in test [4] (first compound 0.8 µM), 0.197. The values for the relative viability in test [4] (first compound 2.53 µM) and in test [4] (first compound 8 µM) were 0.198 and 0.193, respectively.
